Values of other authors as cited in publication PMC4499460 (The Journal of organic chemistry, 2015).

Conditions: in 1 N H2SO4

## C=C[C@H]1CN2CC[C@H]1C[C@H]2[C@H](O)c1ccnc2ccc(OC)cc12.O=S(=O)(O)O [quinine bisulfate]
  ϕf of quantum yield reference: 0.54
